Measurements reported in PMC11413853, “Discovery of VU6007496: Challenges in the Development of an M1 Positive Allosteric Modulator Backup Candidate” (ACS Chemical Neuroscience, 2024).
Like-named read-outs stand apart in the source and are kept apart here.

Assays:
[1] = system: Histamine H1; assay: Eurofins radioligand binding; design: species or system Human; settings: specific binding
[2] = system: Adenosine A2A; assay: Eurofins radioligand binding; design: species or system Human; settings: specific binding
[3] = system: GABAB1A; assay: Eurofins radioligand binding; design: species or system Human; settings: specific binding
[4] = system: Histamine H2; assay: Eurofins radioligand binding; design: species or system Human; settings: specific binding
[5] = system: Neuropeptide Y Y2; assay: Eurofins radioligand binding; design: species or system Human; settings: specific binding
[6] = system: Glutamate, NMDA, Phencyclidine; assay: Eurofins radioligand binding; design: species or system Rat; settings: specific binding
[7] = Rat satellite PK study, 3 mg/kg p.o.; format: in vivo; settings: 3 mg/kg p.o. (NOR MED)
Description: Historically, our PK/PD for M1 PAMs in NOR has a strong correlation with total brain as opposed to unbound levels, with MEDs typically 0.25 to 0.4 of the rat EC50.[21] This may be due to higher endogenous cholinergic tone in healthy animals, and the in vitro PAM EC50s being derived from an arbitrarily selected EC20 concentration of ACh as a subthreshold value.

[8] = system: Neuropeptide Y Y1; assay: Eurofins radioligand binding; design: species or system Human; settings: specific binding
[9] = system: T1, hNav1.5 (Tonic); assay: Ion channel current (Charles River Study 200609.WVN); format: cell-based, human; settings: 10 μM, n 4
T1 construct: Charles River Study 200609.WVN
Description: (§1) Table S2. Effects of VU6007496 on Ion Channel Current (Charles River Study 200609.WVN)
(§2) Ion Channel Conc Mean % Standard Standard n Individual Data
(§3) (μM) Inhibition Deviation Error Points (% Inhibition)

[10] = system: T2, hKv1.3; assay: as above; format: cell-based, human; settings: 10 μM; n 4
T2 construct: Charles River
Description: as §1, §2, §3

[11] = system: T3, hCav1.2; assay: as above; format: cell-based, human; settings: 10 μM; n 4
T3 construct: Charles River
Description: as §1, §2, §3

[12] = system: T4, hKv1.5; assay: as above; format: cell-based, human; settings: 10 μM; n 3
T4 construct: Charles River
Description: as §1, §2, §3

[13] = system: T5, hNav1.5 (Phasic); assay: as above; format: cell-based, human; settings: 10 μM, n 4
T5 construct: Charles River Study 200609.WVN
Description: as §1, §2, §3

[14] = system: T6, hHCN2; assay: as above; format: cell-based, human; settings: 10 μM; n 3
T6 construct: Charles River
Description: as §1, §2, §3

[15] = system: rCYP2J2; assay: Substrate depletion with recombinant human CYPs, rCYP2J2; format: in vitro ADME
Description: (§4) To advance 11 as a candidate and into IND-enabling studies, we next needed to better understand its CYP profile to minimize drug–drug interactions in the clinic. […] We were pleased to see the contribution of another CYP beyond 3A4 for the metabolism of 11.[21] In parallel, we investigated the ability of PAM 11 to induce the expression of CYP450s (measuring mRNA) in cryopreserved human hepatocytes from three separate donors.

[16] = Hepatocyte MET ID, human; format: in vitro ADME; settings: 4-h incubation
Description: (§5) More concerning were the results generated via outsourced multispecies hepatocyte MET ID, which were drastically different than the liver S9MET ID. The extent of metabolism for VU6007496 with rat, dog, monkey and human hepatocytes was 64.7, 51.5, 63.9 and 99.5%, respectively (Figure 8). […] In human hepatocytes, PAM 11 was metabolized primarily to Metabolite A (24), the result of oxidative N-demethylation of the southern pyrazole. The other minor metabolites were oxidation on the tetrahydropyran moiety and included ring opening (Metabolite F, 25).[21]

[17] = system: Sodium Channel, Site 2; assay: Eurofins radioligand binding; design: species or system Rat; settings: specific binding
[18] = system: Transporter, Dopamine (DAT); assay: Eurofins radioligand binding; design: species or system Human; settings: specific binding
[19] = target: Glutamate, NMDA, Glycine (Rattus norvegicus, UniProt P35439); assay: Eurofins radioligand binding; settings: specific binding
Glutamate, NMDA, Glycine, sequence (P35439 394-800 limits assumed): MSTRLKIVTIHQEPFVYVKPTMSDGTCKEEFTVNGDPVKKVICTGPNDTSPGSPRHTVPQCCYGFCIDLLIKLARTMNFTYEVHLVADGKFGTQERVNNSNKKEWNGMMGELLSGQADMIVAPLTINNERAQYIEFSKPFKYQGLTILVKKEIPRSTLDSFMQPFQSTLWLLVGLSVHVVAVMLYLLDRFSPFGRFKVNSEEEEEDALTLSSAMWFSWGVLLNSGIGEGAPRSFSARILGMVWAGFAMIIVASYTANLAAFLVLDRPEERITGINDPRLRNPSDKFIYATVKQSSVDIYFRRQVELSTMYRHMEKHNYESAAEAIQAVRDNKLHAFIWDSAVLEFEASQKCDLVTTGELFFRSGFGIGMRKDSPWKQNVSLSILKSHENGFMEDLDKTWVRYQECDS

[20] = system: Dopamine D3; assay: Eurofins radioligand binding; design: species or system Human; settings: specific binding
[21] = system: Transporter, Norepinephrine (NET); assay: Eurofins radioligand binding; design: species or system Human; settings: specific binding
[22] = system: Androgen (Testosterone); assay: Eurofins radioligand binding; design: species or system Human; settings: specific binding
[23] = system: Serotonin (5-HT1A); assay: Eurofins radioligand binding; design: species or system Human; settings: specific binding
[24] = system: Transporter, GABA; assay: Eurofins radioligand binding; design: species or system Rat; settings: specific binding
[25] = Hepatocyte MET ID, dog; format: in vitro ADME; settings: 4-h incubation
Description: as §5

[26] = system: Endothelin ETA; assay: Eurofins radioligand binding; design: species or system Human; settings: specific binding
[27] = system: T7, hERG; assay: Ion channel current (Charles River Study 200609.WVN); format: cell-based; settings: human, n 3
T7 construct: Charles River
Description: as §1, §2, §3

[28] = system: Thyroid Hormone; assay: Eurofins radioligand binding; design: species or system Rat; settings: specific binding
[29] = Rat dose escalation study (p.o., 30% captisol); format: in vivo; settings: for Cmax: brain, read-out: total brain concentration at Cmax
Experimental: While awaiting more definitive MET ID studies in multispecies hepatocytes, we elected to perform a rat dose escalation study to assess exposures in a standard, tox-friendly oral vehicle (30% captisol) to lay the foundation for dose range finding/maximum tolerated dose (DRF/MTD) studies. Male Sprague–Dawley rats were dosed with VU6007496 (11) at doses of 3, 10, 30, 100, and 300 mg/kg p.o. in 30% captisol. […]. […] Recall, exposures in rat at the NOR MED were 990 nM total and 39.8 nM unbound brain concentrations, respectively. […]

[30] = system: Leukotriene, Cysteinyl CysLT1; assay: Eurofins radioligand binding; design: species or system Human; settings: specific binding
[31] = system: Potassium Channel [KATP]; assay: Eurofins radioligand binding; design: species or system Hamster; settings: specific binding
[32] = system: rCYP3A4; assay: Substrate depletion with recombinant human CYPs, rCYP3A4; format: in vitro ADME
Description: as §4

Cn1ccc(-c2ccc(Cc3cc(C(=O)NC4CCOCC4)nc4ccn(C)c34)cc2)n1 [compound 11]
% Inhibition at 10 µM [1]: 5%
% Inhibition at 10 µM [2]: -11%
% Inhibition at 10 µM [3]: 4%
% Inhibition at 10 µM [4]: 28%
% Inhibition at 10 µM [5]: 31%
% Inhibition at 10 µM [6]: 7%
total brain concentration [7]: 990 nM
unbound brain concentration [7]: 0.0398 µM
% Inhibition at 10 µM [8]: -10%
Mean % Inhibition [9]: 3.9%
Mean % Inhibition [10]: 16.5%
Mean % Inhibition [11]: 12.8%
Mean % Inhibition [12]: 8.7%
Mean % Inhibition [13]: 11.4%
Mean % Inhibition [14]: 4.9%
share of hepatic CYP-mediated clearance, rCYP2J2 [15]: 2.4%
extent of metabolism, human hepatocytes [16]: 99.5%
% Inhibition at 10 µM [17]: 19%
% Inhibition at 10 µM [18]: 13%
inhibition at 10 µM [19]: 0%
% Inhibition at 10 µM [20]: 8%
% Inhibition at 10 µM [21]: 12%
% Inhibition at 10 µM [22]: -24%
% Inhibition at 10 µM [23]: 7%
% Inhibition at 10 µM [24]: -17%
extent of metabolism, dog hepatocytes [25]: 51.5%
% Inhibition at 10 µM [26]: 3%
inhibition at 10 µM [27]: 2.6%
% Inhibition at 10 µM [28]: 2%
Cmax ([29]; male, Sprague-Dawley, po, rat, 100 mg/kg p.o.): 9.1 µM
Cmax ([29]; male, Sprague-Dawley, po, rat, 300 mg/kg p.o.): 17.2 µM
Tmax ([29]; male, Sprague-Dawley, in vivo, po, rat, 3, 10, 30, 100, and 300 mg/kg p.o., all doses): < 2 h
fold over the NOR MED exposure ([29]; rat, 100 mg/kg p.o.): ~9 fold
unbound brain concentration at Cmax ([29]; rat, 100 mg/kg p.o.): 0.298 µM
fold over the NOR MED exposure ([29]; rat, 300 mg/kg p.o.): ~17 fold
unbound brain concentration at Cmax ([29]; rat, 300 mg/kg p.o.): 0.569 µM
adverse cholinergic events ([29]; rat, 100 and 300 mg/kg p.o. dose groups, after 4.5 h): severe adverse cholinergic events
dose proportionality of exposure ([29]; rat, from 3 to 30 mg/kg p.o.): Linear dose escalation
cholinergic toxicity ([29]; rats, 30 mg/kg p.o.): not observed
window from the MED ([29]; rats, 30 mg/kg p.o. vs MED 3 mg/kg): 10 fold
% Inhibition at 10 µM [30]: 3%
% Inhibition at 10 µM [31]: 11%
share of hepatic CYP-mediated clearance, rCYP3A4 [32]: 97.6%
